Patent US20050148505A1, “Genes and agents to regulate follicular development, ovulation cycle and steriodogenesis” (priority 2003, published 2005)

Tests used:
CTBP mRNA = CTBP mRNA expression in primary granulosa cell culture by semi-quantitative RT-PCR; assay type: cell-based, rat; details: 6 h; for CTBP mRNA level, inhibitor alone in the absence of FSH: CHX 10 μg/ml or α-amanitin 30 μg/ml, compared to control
Experimental: FIG. 3. CTBP mRNA expression in primary granulosa cell culture. Granulosa cells were isolated from the ovaries of 24 day old immature rat primed with 17β-estradiol. The cells were cultured in the presence of 30 ng/ml FSH for up to 48 h, and RNA was extracted and amplified for CTBP using quantitative RT-PCR. In addition, L-19 mRNA was probed as an internal control. The CTBP values were normalized with the corresponding values of L-19 and two independent experimental values were averaged.
FIG. 5. Effects of cycloheximide and α-amanitin treatment on the FSH/forskolin-induced expression of CTBP mRNA. Granulosa cells were isolated from 17β-estradiol primed 24-day old immature rat ovaries and cultured with FSH (30 ng/ml) or forskolin (10 μM, FSK) in the presence or absence of cycloheximide (10 μg/ml, CHX) or α-amanitin (30 μg/ml, AMA) for the 6 h. CHX, a translation inhibitor, and AMA, a transcription inhibitor, were pretreated to the cell cultures one hour before hormone treatment. Total RNA was isolated and analyzed for CTBP and L-19 mRNA by semi-quantitative RT-PCR assay using 23 cycles for CTBP and 20 cycles for L-19. L-19 was used as an internal control. Values shown are the range of two independent experiments along with the mean, indicated by bars.
For granulosa cell culture, immature rats were daily injected sub cutaneously with 1.5 mg of 17β-estradiol at 21, 22 and 23 days of age. […] After cells were washed three times in 4F, they were plated on serum-coated, 6-well plates at a density of ˜1×10^6 cells per […] and incubated in the humidified atmosphere of 5% CO2 at 37 C. After 16 h, FSH (30 ng/ml) or forskolin (10 μM) was added to the cultures. For the inhibition of protein synthesis or transcription, cycloheximide (10 μg/ml) or α-amanitin (30 μg/ml) was added, respectively, 1 h before hormone treatment.
RT-PCR was performed as previously described (Ko et al. 1999 Endocrinology 140:5185-519411). Total RNA (1-2 μg) was reverse-transcribed at 37° C. in 20 μl using random hexamer (500 ng) and MMLV reverse transcriptase (10 units) (New England BioLabs, Boston, Mass.). Complementary DNA (cDNA) in 2 μl was added for a total 25 μl reaction mixture containing the primers (200 ng each), 0.4 mM dNTP mixture, and Taq DNA polymerase (2.5 U) in 1×PCR buffer (10 mM Tris, pH 8.3, 50 mM KCl, 1.5 mM MgCl2, 0.01% gelatin). All PCR amplifications were carried out for 20, 25, 30 cycles on a MJ research Minicycler (MJ Research, MA). PCR products were separated by 2% agarose gel electrophoresis, stained with SYBR® Green I (Molecular Probes), and visualized on a phosphoimager. The primers were 5′-ctg act ggc gag aac tgg atg-3′SEQ ID NO. 1) and 5′-aca gta tgc agg ctt cgc tcc-3′ (SEQ ID NO. 2) for 160 bp CTBP, 5′-gct ttc cct ctg ttg acc cac-3′(SEQ ID NO. 3) and 5′-aga tgt tga ggg cag ctc gat-3′(SEQ ID NO. 4) for 255 bp inhibin α, 5′-ctg aag gtc aaa ggg aat gtg-3′ (SEQ ID NO. 5) and 5′-gga cag agt ctt gat gat ctc-3′ (SEQ ID NO. 6) for 194 bp L-19 as an internal control.

granulosa cells = assay: Estrogen production by granulosa cells, assayed in culture media; assay type: cell-based; details: for FSH-induced estrogen production: FSH pre-treated granulosa cells
Experimental: FIG. 7. Effects of T3 hormone on estrogen production. (A) Granulosa cells were treated with increasing concentrations of FSH and the culture media were assayed for estrogen production. (B) Granulosa cells that were pre-treated with FSH were treated with T3 for varying time periods, 0-4 days. The culture media were assayed for estrogen. (C) Granulosa cells were treated with none, thyroid hormone T3, FSH, or FSH and T3 combo for 3 or 5 days. The culture media were assayed for estrogen production. […] The culture media were assayed for estrogen production.

| Structure (SMILES) | CTBP mRNA level, inhibitor alone in the absence of FSH (CTBP mRNA) | FSH-dependent decrease in CTBP mRNA in the presence of inhibitor (CTBP mRNA; CHX 10 μg/ml added 1 h before FSH 30 ng/ml, compared with absence of CHX) | forskolin-induced reduction of CTBP mRNA level in the presence of inhibitor (CTBP mRNA; cycloheximide 10 μg/ml plus forskolin 10 μM) | CTBP mRNA expression, co-treatment with FSH (CTBP mRNA; α-amanitin 30 μg/ml plus FSH 30 ng/ml) | FSH-induced estrogen synthesis (granulosa cells; FSH and T3 combo for 3 or 5 days) | FSH-induced estrogen production (granulosa cells; T3 by day 4) | FSH-induced estrogen production (granulosa cells; T3 within 24 h) | hCG-dependent estrogen production (granulosa cells; hCG and T3 combo for 3 or 5 days) |
| --- | --- | --- | --- | --- | --- | --- | --- | --- |
| C[C@@H]1C[C@@H]([C@H](O)CC2CC(=O)NC(=O)C2)C(=O)[C@@H](C)C1 [cycloheximide] | increased the CTBP mRNA level | significantly less | partially prevented | – | – | – | – | – |
| CC[C@H](C)[C@@H]1NC(=O)CNC(=O)[C@@H]2Cc3c([nH]c4cc(O)ccc34)[S+]([O-])C[C@@H](NC(=O)CNC1=O)C(=O)N[C@@H](CC(N)=O)C(=O)N1C[C@H](O)C[C@H]1C(=O)N[C@@H]([C@@H](C)[C@@H](O)CO)C(=O)N2 (stereo in doubt) [α-amanitin] | did not significantly impact the expression level | – | – | completely abolished | – | – | – | – |
| N[C@@H](Cc1cc(I)c(Oc2ccc(O)c(I)c2)c(I)c1)C(=O)O [T3] | – | – | – | – | suppresses | completely blocked | suppressed | stimulates |
